Consider 33 compounds from article PMC12588090, “C6-Alkoxy substituted penicillins are potent non-covalently binding inhibitors of the SARS-CoV-2 main protease” (RSC Medicinal Chemistry, 2025).

Several values for one entry are separate records, joined by “and”; a condition that tells them apart may be missing. Identical values can stand only once. Entries after “also recorded” stand apart in the source; their conditions may differ. Like-named read-outs stand apart in the source and are kept apart here.

For orientation: IC50 means the concentration that gives 50% inhibition.

For assay [1], the target named is T1, SARS-CoV-2 M^pro (Severe acute respiratory syndrome coronavirus 2, UniProt P0DTD1). Description: SPE-MS M^pro inhibition assay. Conditions: for increase in M^pro inhibition potency compared to (S)-sulfoxide 22: ratio of IC50 values. In kind it is biochemical.
In assay [2] the target is T1, SARS-CoV-2 M^pro. In kind it is binding. Particulars: for covalent reaction with / modification of M^pro / species with mass shifts corresponding to potential acyl–enzyme complexes: β-lactam 15 μM; for covalent reaction with / modification of M^pro: M^pro 3.0 μM (5 : 1), denaturing MS, 20 mM HEPES pH 7.5; for covalent reaction with / modification of M^pro / mass shift of concentration-dependent M^pro adduct / species with mass shifts corresponding to potential acyl–enzyme complexes: >15 h incubation; for mass shift of concentration-dependent M^pro adduct: intensity rises with penicillin derivative : M^pro ratio; for species with mass shifts corresponding to potential acyl–enzyme complexes: M^pro 3.0 μM.

The target of assay [3] is T1, SARS-CoV-2 M^pro. Particulars: read-out: IC50 (reported) (converted), cited from earlier work.
The test system of assay [4] is human leukocyte elastase (HLE). More on the design: method as in doi:10.1016/S0960-894X(01)80940-9. Conditions: cited from earlier work.
Where [5] appears, read: SPE-MS, M^pro 0.05 μM, substrate 2.0 μM, n = 3, mean ± SD, freshly prepared DMSO stocks for 8, read-out: IC50.
Setting [6] is: IC50, SPE-MS, M^pro 0.05 μM, substrate 2.0 μM, n = 3, mean ± SD, freshly prepared DMSO stocks for 8.
Setting [7] is: SPE-MS, M^pro 0.05 μM, substrate 2.0 μM, n = 3, mean ± SD, freshly prepared DMSO stocks for 8.
Setting [8] is: literature value given in Table 1.

As for `CC1(C)C(C(=O)OCc2ccccc2)N2C(=O)C(Oc3ccccc3)C2S1(=O)=O` (stereo not shown) [27e], the IC50 on SARS-CoV-2 M^pro [1] (setting [5]) was greater than 50 µM. As for `CC1(C)SC2C(Oc3ccccc3)C(=O)N2C1C(=O)OCc1ccccc1` (stereo not shown) [26e], the IC50 on SARS-CoV-2 M^pro [1] (setting [5]) is greater than 50 µM.

As to `CO[C@@]1(NC(=O)Cc2ccccc2)C(=O)N2[C@@H](C(=O)O)C(C)(C)S[C@@H]21` [compound 24, C6-methoxypenicillin G acid], the IC50 on SARS-CoV-2 M^pro [1] (moderate inhibition potency observed in some cases (variable values, possible instability in DMSO), read-out: IC50) was 15 ± 8 µM.

Turning to `CO[C@@]1(NC(=O)Cc2ccccc2)C(=O)N2[C@@H](C(=O)OCc3ccccc3)C(C)(C)S(=O)(=O)[C@@H]21` [compound 20], on SARS-CoV-2 M^pro [1] (setting [5]), the IC50 was determined as 11 ± 4 µM. `CO[C@@]1(NC(=O)Cc2ccccc2)C(=O)N2[C@@H](C(=O)OCc3ccccc3)C(C)(C)[S+]([O-])[C@@H]21` (stereo partly shown) [compound 22]: the IC50 at SARS-CoV-2 M^pro [1] (setting [5]) is ~7.3 µM and 7.3 µM. For the same compound, the “covalent reaction with / modification of M^pro” value on SARS-CoV-2 M^pro [2] is “no evidence for covalent M^pro modification”. `CC1(C)[C@H](C(=O)OCc2ccccc2)N2C(=O)[C@](NC(=O)COc3ccccc3)(OCc3ccccc3)[C@H]2S1(=O)=O` [C00008]: the IC50 on SARS-CoV-2 M^pro [1] (setting [5]) came out at 8.3 ± 2.6 µM. For the compound `CC1(C)S[C@@H]2[C@H](NC(=O)COc3ccccc3)C(=O)N2[C@H]1C(=O)OCc1ccccc1` [compound 5], the IC50 against SARS-CoV-2 M^pro [1] (setting [6]) is greater than 50 µM; at SARS-CoV-2 M^pro [1] (setting [7]), “no inhibition in the tested concentration range”; at SARS-CoV-2 M^pro [3] (setting [8]), greater than 50 µM. As for `COC1(NC(=O)COc2ccccc2)C(=O)N2C1[S+]([O-])C(C)(C)C2C(=O)OCc1ccccc1` (stereo not shown) [compound 7], the IC50 on SARS-CoV-2 M^pro [1] (setting [5]) is ~2.3 µM and 2.3 µM. Further, on SARS-CoV-2 M^pro [2], the “covalent reaction with / modification of M^pro” value was “in no case were substantial amounts of species corresponding to covalent modification observed; also recorded: low levels of reaction”.

On to `CC1(C)[C@H](C(=O)OCc2ccccc2)N2C(=O)[C@@H](NC(=O)Cc3ccccc3)[C@H]2S1(=O)=O` [compound 19], for which the IC50 at SARS-CoV-2 M^pro [1] (setting [5]) is greater than 50 µM. `CC(C)O[C@H]1C(=O)N2[C@@H](C(=O)OCc3ccccc3)C(C)(C)S(=O)(=O)[C@H]12` [27c]: the IC50 on SARS-CoV-2 M^pro [1] (setting [5]) is 19 ± 14 µM.

For the compound `CC1(C)S[C@@H]2[C@H](NC(=O)Cc3ccccc3)C(=O)N2[C@H]1C(=O)OCc1ccccc1` [compound 18], the IC50 at SARS-CoV-2 M^pro [1] (setting [5]) was greater than 50 µM. As to `CC1(C)SC2C(OCc3ccccc3)C(=O)N2C1C(=O)OCc1ccccc1` (stereo not shown) [26f], at SARS-CoV-2 M^pro [1] (setting [5]), the concentration for half-maximal inhibition (IC50) turned out to be 7.3 ± 1.4 µM.

`CO[C@H]1C(=O)N2[C@@H](C(=O)OCc3ccccc3)C(C)(C)S(=O)(=O)[C@H]12` [27a]: the midpoint of inhibition against SARS-CoV-2 M^pro [1] (setting [6]), the IC50, lay at 7.7 ± 4.9 µM. The “covalent reaction with / modification of M^pro” value on SARS-CoV-2 M^pro [2] is “in no case were substantial amounts of species corresponding to covalent modification observed; also recorded: did not evidence covalent modification”. Take `CC(C)O[C@H]1C(=O)N2[C@@H]1SC(C)(C)[C@@H]2C(=O)OCc1ccccc1` [26c]: on SARS-CoV-2 M^pro [1] (setting [5]), the IC50 is 47 ± 13 µM. Take `CC1(C)[C@H](C(=O)OCc2ccccc2)N2C(=O)[C@@H](NC(=O)Cc3ccccc3)[C@H]2[S@+]1[O-]` [compound 23]: the half-inhibitory concentration (IC50) at SARS-CoV-2 M^pro [1] (setting [5]) was greater than 50 µM. In the case of `CCO[C@H]1C(=O)N2[C@@H]1SC(C)(C)[C@@H]2C(=O)OCc1ccccc1` [26b], the IC50 on SARS-CoV-2 M^pro [1] (setting [5]) was found to be 0.8 ± 0.1 µM.

Regarding `CC1(C)[C@H](C(=O)OCc2ccccc2)N2C(=O)[C@](NC(=O)COc3ccccc3)(O[C@@H]3CCNC3=O)[C@H]2S1(=O)=O` [C00006], the IC50 at SARS-CoV-2 M^pro [1] (setting [5]) was determined as 5.3 ± 1.6 µM. For `COC1(NC(=O)Cc2ccccc2)C(=O)N2C1[S+]([O-])C(C)(C)C2C(=O)OCc1ccc([N+](=O)[O-])cc1` (stereo not shown) [compound 2], the IC50 at SARS-CoV-2 M^pro [1] (setting [5]) is 0.5 ± 0.1 µM; at SARS-CoV-2 M^pro [3] (literature value in Table 2), roughly 3.5 µM. For the same compound, the “increase in M^pro inhibition potency compared to (S)-sulfoxide 22” value on SARS-CoV-2 M^pro [1] is roughly 9 fold. Also, the “mass shift of M^pro adduct” value on SARS-CoV-2 M^pro [2] (5 : 1 inhibitor : M^pro, after 45 min, low levels) is listed as “+32 Da”; on SARS-CoV-2 M^pro [2] (5 : 1 inhibitor : M^pro, formed within 15 min, increasing intensity), “+498 Da”; at SARS-CoV-2 M^pro [2] (5 : 1 inhibitor : M^pro, t = 0 min / initial, weak intensity) it was “+515 Da”; on SARS-CoV-2 M^pro [2] (10:1 inhibitor : M^pro, after 45 min, low intensity), “+32 Da”; on SARS-CoV-2 M^pro [2] (10:1 inhibitor : M^pro, increasing intensity over 45 min), “+498 Da”; on SARS-CoV-2 M^pro [2] (10:1 inhibitor : M^pro, initial formation), “+515 Da”. For the same compound, the “mass shift of concentration-dependent M^pro adduct” value on SARS-CoV-2 M^pro [2] is “+32 Da”. On SARS-CoV-2 M^pro [2], the “covalent reaction with / modification of M^pro” value is reported as “in no case were substantial amounts of species corresponding to covalent modification observed”. In addition, at SARS-CoV-2 M^pro [2], the “species with mass shifts corresponding to potential acyl–enzyme complexes” value is listed as “low levels”. As to `CO[C@H]1C(=O)N2[C@@H]1SC(C)(C)[C@@H]2C(=O)OCc1ccccc1` [26a], the IC50 on SARS-CoV-2 M^pro [1] (setting [5]) turned out to be 1.2 ± 0.1 µM. Moreover, on SARS-CoV-2 M^pro [2], the “covalent reaction with / modification of M^pro” value is on record as “in no case were substantial amounts of species corresponding to covalent modification observed; also recorded: did not evidence covalent modification”.

On to `CC(C)(C)O[C@H]1C(=O)N2[C@@H](C(=O)OCc3ccccc3)C(C)(C)S(=O)(=O)[C@H]12` [27d], for which the IC50 on SARS-CoV-2 M^pro [1] (setting [5]) came out at 21 ± 3 µM. Turning to `CC1(C)[C@H](C(=O)OCc2ccccc2)N2C(=O)[C@@H](NC(=O)COc3ccccc3)[C@H]2S1(=O)=O` [compound 1, penicillin V sulfone benzyl ester], the results for the IC50 on SARS-CoV-2 M^pro [1] (setting [5]) and at SARS-CoV-2 M^pro [3] (setting [8]) were 2.9 ± 0.4 µM and roughly 6.6 µM, respectively. On to `CC(C)(C)O[C@H]1C(=O)N2[C@@H]1SC(C)(C)[C@@H]2C(=O)OCc1ccccc1` [26d], for which, on SARS-CoV-2 M^pro [1] (setting [5]), the IC50 was 39 ± 9 µM. `CC1(C)S[C@@H]2[C@H](NC(=O)Cc3ccccc3)C(=O)N2[C@H]1C(=O)O` [C00011, reference compound]: the IC50 against SARS-CoV-2 M^pro [1] (setting [6]) and at SARS-CoV-2 M^pro [3] (literature value in Table 2) was greater than 50 µM throughout. For the compound `CO[C@@]1(NC(=O)Cc2ccccc2)C(=O)N2[C@@H](C(=O)OCc3ccccc3)C(C)(C)S[C@@H]21` [compound 25], the IC50 on SARS-CoV-2 M^pro [1] (setting [5]) was 11 ± 6 µM.

Regarding `CC1(C)S[C@H]2N(C(=O)[C@]2(NC(=O)COc2ccccc2)OCc2ccccc2)[C@H]1C(=O)OCc1ccccc1` [16c], the IC50 result against SARS-CoV-2 M^pro [1] (setting [7]) was “inactive”; at SARS-CoV-2 M^pro [1] (setting [5]), greater than 50 µM. Turning to `CO[C@@]1(NC(=O)COc2ccccc2)C(=O)N2[C@@H](C(=O)OCc3ccccc3)C(C)(C)S(=O)(=O)[C@@H]21` [compound 9], the IC50 result is “inactive” on SARS-CoV-2 M^pro [1] (setting [7]) and greater than 50 µM on SARS-CoV-2 M^pro [1] (setting [5]). Moreover, on SARS-CoV-2 M^pro [2], the “covalent reaction with / modification of M^pro” value is “in no case were substantial amounts of species corresponding to covalent modification observed”. With `CO[C@@]1(NC(=O)COc2ccccc2)C(=O)N2[C@@H](C(=O)OCc3ccccc3)C(C)(C)S[C@@H]21` [compound 8], the IC50 result is “no inhibition in the tested concentration range” on SARS-CoV-2 M^pro [1] (setting [7]); greater than 50 µM on SARS-CoV-2 M^pro [1] (setting [5]); roughly 5 µM at SARS-CoV-2 M^pro [1] (additional replicates using premade DMSO stock solutions, read-out: IC50). As to `CC1(C)C(C(=O)OCc2ccccc2)N2C(=O)C(OCc3ccccc3)C2S1(=O)=O` (stereo not shown) [27f], in assay [4], the “inhibition of HLE” value was “covalent inhibitors”. Also, at SARS-CoV-2 M^pro [1] (setting [5]), the IC50 came to 35 ± 2 µM.

In the case of `CCO[C@@]1(NC(=O)COc2ccccc2)C(=O)N2[C@@H](C(=O)OCc3ccccc3)C(C)(C)S(=O)(=O)[C@@H]21` [10a], the IC50 at SARS-CoV-2 M^pro [1] (setting [5]) was determined as 5.8 ± 1.9 µM.

As to `CO[C@@]1(NC(=O)Cc2ccccc2)C(=O)N2[C@@H](C(=O)OCc3ccccc3)C(C)(C)[S@@+]([O-])[C@@H]21` [compound 3, C6-methoxy (R)-sulfoxide penicillin G benzyl ester], the IC50 at SARS-CoV-2 M^pro [1] (setting [5]) was ~0.8 µM and 0.8 µM. The “increase in M^pro inhibition potency compared to (S)-sulfoxide 22” value at SARS-CoV-2 M^pro [1] is given as roughly 9 fold. Moreover, on SARS-CoV-2 M^pro [2], the “mass shift of concentration-dependent M^pro adduct” value is on record as “+32 Da”, the “covalent reaction with / modification of M^pro” value is recorded as “in no case were substantial amounts of species corresponding to covalent modification observed” and the “species with mass shifts corresponding to potential acyl–enzyme complexes” value is reported as “low levels”. Regarding `CC1(C)C(C(=O)OCc2ccccc2)N2C(=O)C(NC(=O)Cc3ccccc3)C2[S+]1[O-]` (stereo not shown) [compound 21], the IC50 on SARS-CoV-2 M^pro [1] (setting [5]) was greater than 50 µM. For `CC1(C)C(C(=O)OCc2ccccc2)N2C(=O)C(NC(=O)COc3ccccc3)C2[S+]1[O-]` (stereo not shown) [compound 6], the IC50 on SARS-CoV-2 M^pro [1] (setting [5]) was 6.3 ± 1 µM; on SARS-CoV-2 M^pro [3] (setting [8]) it was roughly 23 µM. Regarding `CCO[C@H]1C(=O)N2[C@@H](C(=O)OCc3ccccc3)C(C)(C)S(=O)(=O)[C@H]12` [27b], the “inhibition of HLE” value in assay [4] is on record as “covalent inhibitors”. For the same compound, the IC50 on SARS-CoV-2 M^pro [1] (setting [5]) amounted to 44 ± 4 µM.
